Data taken from US7521454B2 (Dainippon Sumitomo Pharma Co., Ltd., priority 2001, dated 2009).
In brackets after ≈: the same amount, converted by molar mass. Where a name gives a salt, the structure may show the parent alone. Read-outs that look alike come from different tables or passages of the source.

What was measured:
[1] = Gastrointestinal absorption in rat (drug level in blood by HPLC); assay type: in vivo; details: blood, SD male rat; for Cmax: read-out: Cmax; for Tmax: read-out: Tmax
Procedure: A test compound was suspended in an aqueous solution of 0.5% carboxymethylcellulose, and the resulting suspension was orally administered to an SD male rat. Blood was sampled with the elapse of time, and the level of the drug in blood was assayed by HPLC.

[2] = tested on: mouse spleen cell; assay: cells; assay type: cell-based; details: Mus musculus, 24 h, read-out: Interferon-inducing activity: Minimum effective concentration
[3] = Solubility in citric acid/disodium phosphate buffers; details: citric acid/disodium phosphate buffer, thermodynamic from solid
Procedure: 5.53% citric acid (monohydrate) and 1.75% disodium phosphate (anhydrous) were mixed together to prepare buffers (pH 2.5, 5.5, 7.4). A compound was added thereto, the mixture was stirred in a vortex mixer and subjected to ultrasonication for 30 minutes. Thereafter, the resultant was stirred in a vortex mixer again and then centrifuged at 15,000 rpm for 20 minutes. The levels of the compounds in the supernatants were then quantified by HPLC.

[4] = tested on: IL-5 production; assay: Inhibitory activity against Th2 cytokine produced from sensitized spleen cells: IL-5; assay type: cell-based, mouse; details: Mus musculus, 72 h, OVA-sensitized BALB/c spleen cells, 3 days; for activity at 0.0001 µM: concentration 0.1 nM; for activity at 0.001 µM: concentration 1 nM; for activity at 0.001 µM / activity at 0.01 µM / activity at 0.1 µM: read-out: Inhibitory activity against IL-5 production; for activity at 0.01 µM: concentration 10 nM; for activity at 0.1 µM: concentration 100 nM
Procedure: (§1) A 7-week-old BALB/c mouse was immunized intraperitoneally with aluminum hydroxide gel (4 mg, 100 μl) having 10 μg of ovalbumin adsorbed thereon, and it was subjected to additional immunization with the same agent 14 days later. Seven days thereafter, spleen was taken out, and suspended in RPMI-1640 comprising inactivated fetal bovine serum (10%), 2-mercaptoethanol ([…]), penicillin G (100 U/ml), and streptomycin (100 μg/ml). Thus, a splenic cell suspension was prepared. Ovalbumin (0.5 mg/ml) and a test compound were added to a splenic cell suspension (5×10^6 cell/200 μl/well), and the resultant was cultured at 37° C. in the presence of 5% CO2 for 3 days. The cytokine level in the culture supernatant was quantified by ELISA. IFN-γ and IL-4 were assayed using a kit available from Amersham, and IL-5 was assayed using a kit available from Endogen.

[5] = tested on: Balb/c male mouse; assay: Interferon-inducing activity in mouse (in vivo), serum interferon titer after oral dosing
[6] = tested on: human peripheral blood mononuclear cells (PBMC); assay: Interferon-inducing activity in human peripheral blood mononuclear cells (PBMC), IFN-α ELISA; assay type: cell-based; details: 24 h;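 note: IFN-α in pg/ml with a 1.25 pg/ml detection limit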
Procedure: Peripheral bloods were sampled from 5 healthy volunteers using a syringe containing heparin, and peripheral blood mononuclear cells (PBMC) were prepared by density gradient centrifugation utilizing the Lymphoprep™ (NYCOMED PHARMA AS). PBMCs were washed twice in serum-free RPMI 1640 medium and adjusted at 1×10^6 cells/ml in RPMI 1640 medium comprising 10% fetal bovine serum. The product was cultured in the presence of a test compound dissolved in dimethyl sulfoxide (final concentration: 0.1%) in an incubator in the presence of 5% CO^2 at 37° C. for 24 hours. As a control, 0.1% dimethyl sulfoxide containing no test compound was used. The culture supernatant was aseptically collected by filtration. Thereafter, the supernatant was cryopreserved at −20° C. or lower until it was subjected to the assay for IFN-inducing activity. Human IFN-α in the culture supernatant was quantified using a highly sensitive ELISA system (Amersham).

[7] = tested on: IL-4 production; assay: Inhibitory activity against Th2 cytokine produced from sensitized spleen cells: IL-4; assay type: cell-based, mouse; details: Mus musculus, 72 h, OVA-sensitized BALB/c spleen cells, 3 days; for activity at 0.0001 µM: concentration 0.1 nM; for activity at 0.001 µM: concentration 1 nM; for activity at 0.001 µM / activity at 0.01 µM / activity at 0.1 µM: read-out: Inhibitory activity against IL-4 production; for activity at 0.01 µM: concentration 10 nM; for activity at 0.1 µM: concentration 100 nM
Procedure: as §1

[8] = dosage 0.03 mg/kg oral, serum 2 h after dosing, Balb/c mouse
[9] = dosage 0.1 mg/kg oral, serum 2 h after dosing, Balb/c mouse
[10] = dosage 0.3 mg/kg oral, serum 2 h after dosing, Balb/c mouse

Row | Compound | minimal effective concentration [2] [µM] | solubility at 30 min ([3]; pH 2.5, aqueous buffer) [µg/mL] | solubility at 30 min ([3]; pH 5.5, aqueous buffer) [µg/mL] | solubility at 30 min ([3]; pH 7.4, aqueous buffer) [µg/mL] | activity at 0.0001 µM [4] [%] | activity at 0.001 µM [4] [%] | activity at 0.01 µM [4] [%] | activity at 0.1 µM [4] [%] | Interferon-inducing activity ([5]; po, 0.03 mg/kg, 2 h) [U/ml] | Interferon-inducing activity ([5]; po, 0.1 mg/kg, 2 h) [U/ml] | Interferon-inducing activity ([5]; po, 0.3 mg/kg, 2 h) [U/ml] | activity at 0.0001 µM [7] [%] | activity at 0.001 µM [7] [%] | activity at 0.01 µM [7] [%] | activity at 0.1 µM [7] [%] | also measured
1 | CCCCOc1nc(N)c2nc(O)n(Cc3ccc(C)nc3)c2n1 [Hydrochloride of Example 25, 2-Butoxy-8-hydroxy-9-(6-methyl-3-pyridylmethyl)adenine] |  |  |  |  |  |  |  |  |  |  |  |  |  |  |  | Cmax ([1]; dose 3 mg/kg oral): 18 ng/mL; Tmax ([1]; dose 3 mg/kg oral): 60 min; Cmax ([1]; dose 10 mg/kg oral): 150 ng/mL; Tmax ([1]; dose 10 mg/kg oral): 15 min
2 | CCCCOc1nc(N)c2nc(O)n(Cc3ccccc3)c2n1 [Reference Compound 2, 9-benzyl-2-butoxy-8-hydroxyadenine, reference compound] | 0.001 | 2 (≈ 6.38 µM) | < 1 | < 1 | 99 | 79 | 16 | 11 | 60 ± 40 | 186 ± 42 | 317 ± 160 | 107 | 48 | 1 | < 1 | Interferon-inducing activity (human IFN-α in culture supernatant) ([6]; concentration 1 nM): — ((−) indicates a detection limit (1.25 pg/ml) or lower); Interferon-inducing activity (human IFN-α in culture supernatant) ([6]; concentration 3 nM): 7 pg/mL; Interferon-inducing activity (human IFN-α in culture supernatant) ([6]; concentration 10 nM): 23 ± 22 pg/mL; Interferon-inducing activity (human IFN-α in culture supernatant) ([6]; concentration 30 nM): 64 ± 40 pg/mL
3 | CCCCOc1nc(N)c2nc(O)n(Cc3ccc(OC)nc3)c2n1 [Example 2, 2-Butoxy-8-hydroxy-9-(6-methoxy-3-pyridylmethyl)adenine] | 0.001 |  |  |  | 98 | 37 | 14 | 12 | 388 ± 87 | 1211 ± 263 | 2559 ± 495 | 96 | 4 | < 1 | < 1 | Interferon-inducing activity ([5]; po, 0.01 mg/kg, 2 h): 25 ± 17 U/ml
4 | CCCCNc1nc(N)c2nc(O)n(Cc3ccncc3)c2n1 [Example 22, 2-Butylamino-8-hydroxy-9-(4-pyridylmethyl)adenine] | 0.01 | > 80000 | 73 (≈ 233 µM) | 16 (≈ 51.1 µM) |  | 115 | 50 | 18 |  | 21 ± 9 | 332 ± 83 |  | 88 | 9 | 1 | 
5 | CCCCNc1nc(N)c2nc(O)n(Cc3ccccc3)c2n1 [Reference Compound 1, 9-Benzyl-2-butylamino-8-hydroxyadenine, reference compound] | 0.1 | 26 (≈ 83.2 µM) | < 1 | < 1 |  |  | 92 | 69 |  | 55 ± 25 | 275 ± 165 |  |  | 109 | 24 | 
6 | CCCCNc1nc(N)c2nc(O)n(Cc3cccnc3)c2n1 [Example 21, 2-Butylamino-8-hydroxy-9-(3-pyridylmethyl)adenine] | 0.003 | 15000 (≈ 47900 µM) | 45 (≈ 144 µM) | 64 (≈ 204 µM) |  | 97 | 23 | 15 | 15 ± 8 | 290 ± 134 | 571 ± 164 |  | 53 | 1 | < 1 | 
7 | CCCCOc1nc(N)c2nc(O)n(Cc3ccc(C)nc3)c2n1 [Example 25, 2-Butoxy-8-hydroxy-9-(6-methyl-3-pyridylmethyl)adenine] | 0.001 | > 1000 | 5 (≈ 15.2 µM) | 3 (≈ 9.14 µM) | 102 | 31 | 13 | 13 |  |  |  | 86 | 2 | < 1 | < 1 | Interferon-inducing activity ([5]; dosage 0.01 mg/kg oral, serum 2 h after dosing, Balb/c mouse): 65 ± 52 U/ml; Interferon-inducing activity [5, 8]: 151 ± 29 U/ml; Interferon-inducing activity [5, 9]: 753 ± 140 U/ml; Interferon-inducing activity [5, 10]: 721 ± 299 U/ml; Interferon-inducing activity (human IFN-α in culture supernatant) ([6]; concentration 0.3 nM): 7 ± 3 pg/mL; Interferon-inducing activity (human IFN-α in culture supernatant) ([6]; concentration 1 nM): 28 ± 24 pg/mL; Interferon-inducing activity (human IFN-α in culture supernatant) ([6]; concentration 3 nM): 46 ± 34 pg/mL
8 | CC(C)Cn1cnc2c(N)nc3ccccc3c21 [Comparative Example 1, Imiquimod, reference compound] | 0.3 |  |  |  |  | 54 | 15 | 10 |  |  |  |  | 18 | 1 | < 1 | Cmax ([1]; dose 3 mg/kg oral): 90 ng/mL; Tmax ([1]; dose 3 mg/kg oral): 30 min
9 | CCCCNc1nc(N)c2nc(O)n(Cc3ccccn3)c2n1 [Example 20, 2-Butylamino-8-hydroxy-9-(2-pyridylmethyl)adenine] | 0.03 | 8810 (≈ 28100 µM) |  |  |  | 106 | 71 | 19 |  |  |  |  | 106 | 23 | 2 | 
10 | CCCCOc1nc(N)c2nc(O)n(Cc3ccc(Cl)nc3)c2n1 [Example 1, 2-Butoxy-9-(6-chloro-3-pyridylmethyl)-8-hydroxyadenine] | 0.001 |  |  |  | 116 | 41 | 16 | 15 |  |  |  | 98 | 7 | 2 | < 1 | Interferon-inducing activity [5, 8]: 123 ± 87 U/ml; Interferon-inducing activity [5, 9]: 322 ± 95 U/ml; Interferon-inducing activity [5, 10]: 623 ± 32 U/ml
